Measured values: ChEMBL document CHEMBL1201862, “PubChem BioAssay data set” (2004)
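Growth conditions: 96-well plates. Treatment: test compound, 48 hours, 5 concentrations. Analysis: linear interpolation between bracketing concentrations; unreached endpoints set to highest concentration. GI50 = concentration required for 50% inhibition of growth.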 The source made the active and inactive calls. Rule as the data show it: active = GI50 up to about 1.1 µM and inactive = higher.

How the values were obtained:
Assay in all cases: NCI anticancer screen, dose series, 48 h
[1] = test system: 786-0
[2] = test system: A549
[3] = test system: CCRF-CEM
[4] = test system: HCC 2998
[5] = test system: HOP-62
[6] = test system: M14
[7] = test system: MOLT-4
[8] = test system: Malme-3M
[9] = test system: NCI-H226
[10] = test system: NCI-H23
[11] = test system: OVCAR-3
[12] = test system: PC-3
[13] = test system: SF-539
[14] = test system: SK-MEL-5
[15] = test system: SNB-75
[16] = test system: T47D
[17] = test system: UACC-257
[18] = test system: LOX IMVI
[19] = test system: EKVX
[20] = test system: RXF 393

Measured: GI50

O=C(O)c1cc(CCc2ccc(O)c(O)c2)ccc1O
inactive: [1] > 100 µM | [2] > 100 µM | [3] > 100 µM | [4] > 100 µM | [5] > 100 µM | [6] > 100 µM | [7] > 100 µM | [8] > 100 µM | [9] > 100 µM | [10] > 100 µM | [11] > 100 µM | [12] > 100 µM | [13] > 100 µM | [14] > 100 µM | [15] > 100 µM | [16] > 100 µM | [17] > 100 µM

CC[C@H](NC(=O)OC(C)(C)C)C(=O)NCP(=O)(OCc1ccc([N+](=O)[O-])cc1)OCc1ccc([N+](=O)[O-])cc1
inactive: [1] 92.9 µM | [2] 27.7 µM | [3] 21.6 µM | [4] 36.2 µM | [5] 38.4 µM | [18] 32.4 µM | [6] 30.9 µM | [7] 21.5 µM | [8] 53.5 µM | [9] 39.4 µM | [10] 41.3 µM | [11] 11 µM | [12] 34.8 µM | [13] 31.8 µM | [14] 13.5 µM | [15] 38.9 µM | [16] 63 µM | [17] 11.9 µM

CCN1C[C@]2(COC)[C@H](O)C[C@H](OC)[C@]34C1[C@H]([C@H](OC)[C@H]23)[C@]1(OC(C)=O)[C@H]2[C@@H](OC(=O)c3ccccc3)[C@](O)(C[C@H]24)[C@@H](OC)[C@@H]1O
inactive: [1] > 100 µM | [2] > 100 µM | [3] > 100 µM | [19] > 100 µM | [4] > 100 µM | [18] > 100 µM | [6] > 100 µM | [7] > 10 µM | [8] > 100 µM | [9] > 100 µM | [10] > 100 µM | [12] > 100 µM | [13] > 100 µM | [14] > 100 µM | [15] 31.1 µM | [16] > 100 µM | [17] > 100 µM

NC(Cc1ccccc1)c1nccs1 (stereo not drawn)
inactive: [1] > 100 µM | [2] > 100 µM | [3] > 100 µM | [19] > 100 µM | [4] > 100 µM | [5] > 100 µM | [18] > 100 µM | [6] > 100 µM | [7] > 100 µM | [8] > 100 µM | [9] > 100 µM | [10] > 100 µM | [11] > 100 µM | [12] > 100 µM | [13] > 100 µM | [14] > 100 µM | [15] > 100 µM | [17] > 100 µM

COc1ccc(-c2c(C(=O)Nc3ccccc3)c(-c3ccccc3)n(C3OC(CO)C(O)C(O)C3O)c(=S)c2C#N)cc1 (stereo not drawn)
inactive: [1] > 100 µM | [2] > 100 µM | [3] > 100 µM | [19] > 100 µM | [4] > 100 µM | [5] > 100 µM | [18] > 100 µM | [6] > 100 µM | [7] > 100 µM | [8] > 100 µM | [9] > 100 µM | [10] > 100 µM | [11] > 100 µM | [12] > 100 µM | [20] > 100 µM | [14] > 100 µM | [17] > 100 µM

O=C(OCc1ccccc1)N1CCNCCNCC1
inactive: [1] > 100 µM | [2] > 100 µM | [3] > 100 µM | [19] > 100 µM | [4] > 100 µM | [5] > 100 µM | [18] > 100 µM | [6] > 100 µM | [7] > 100 µM | [9] > 100 µM | [10] > 100 µM | [11] > 100 µM | [12] > 100 µM | [20] > 100 µM | [13] > 100 µM | [14] > 100 µM | [16] > 100 µM | [17] > 100 µM

COC(=O)Cc1c([C@@H]2Nc3ccccc3[C@H]2CC(=O)OC)[nH]c2ccccc12
inactive: [1] 58.2 µM | [2] 31.7 µM | [3] 20.7 µM | [19] 43 µM | [4] 45.1 µM | [5] 26.9 µM | [18] 21.6 µM | [7] 10.9 µM | [9] 71.8 µM | [10] 27 µM | [11] 18.3 µM | [12] 11.1 µM | [20] 25.7 µM | [13] 20.5 µM | [14] 7.98 µM | [15] 36.9 µM | [17] 24.9 µM

O=C(O)c1ccccc1/C=C1\Cc2ccc3c(c2C1=O)CCCC3
inactive: [1] 98.9 µM | [2] 42.7 µM | [3] 30.4 µM | [19] 43.3 µM | [4] 31.3 µM | [5] 49.7 µM | [18] 40 µM | [6] 28.9 µM | [7] 25.2 µM | [8] 41.8 µM | [9] 28.6 µM | [10] 26.1 µM | [11] 31 µM | [20] 30.5 µM | [13] 26.4 µM | [14] 15.9 µM | [15] 27 µM | [16] 19.6 µM | [17] 25.1 µM

Oc1ccc(Cl)cc1C1=NC(NCNC2=NC(c3ccccc3)CC(c3cc(Cl)ccc3O)=N2)=NC(c2ccccc2)C1 (stereo not drawn)
inactive: [1] > 100 µM | [2] > 100 µM | [3] 61 µM | [19] > 100 µM | [4] > 100 µM | [5] > 100 µM | [18] > 100 µM | [6] > 100 µM | [9] > 100 µM | [10] > 100 µM | [11] 60.1 µM | [12] > 100 µM | [20] 37.7 µM | [13] > 100 µM | [14] > 100 µM | [15] > 100 µM | [17] > 100 µM

COc1cc(CCC(=O)O)c2cc3ccccc3cc2c1O
inactive: [1] 16.8 µM | [2] 22.1 µM | [3] 3.22 µM | [19] 24.7 µM | [4] 29 µM | [5] 17.6 µM | [18] 21.5 µM | [6] 21.7 µM | [7] 8.89 µM | [8] 18.4 µM | [9] 32.6 µM | [10] 19.1 µM | [11] 21.4 µM | [12] 18.5 µM | [14] 15.1 µM | [16] 14.6 µM | [17] 16.1 µM

C=C(C)CC1(O)C(=O)C(OCC)=C1OCC (stereo not drawn)
inactive: [1] > 100 µM | [2] > 100 µM | [3] > 100 µM | [19] > 100 µM | [5] > 100 µM | [18] > 100 µM | [6] > 100 µM | [7] > 100 µM | [8] 48.1 µM | [9] > 100 µM | [10] > 100 µM | [11] > 100 µM | [12] > 100 µM | [13] > 100 µM | [14] > 100 µM | [15] 79.6 µM | [16] > 100 µM | [17] > 100 µM
